The numbers were not newly measured in patent publication US20210205766A1, “METHODS AND RELATED APPARATUS FOR PROVIDING A PROCESSING SOLUTION FOR A FOOD PROCESSING APPLICATION” (Zee Company, Inc., priority 2016, published 2021), which cites them from elsewhere.

For this data set the following is noted: about half active (free), about half dissociated (bound) at pH of about 8.4.

As to peroxyacetic acid [PAA], the pKA entry is reported as “about 8.4”.
